Columns and labels:
[1] = Antiplatelet activity in human platelet rich plasma assessed as inhibition of ADP-induced platelet aggregation at 10 uM relative to control; format: functional
P2Y purinoceptor 1 = P2Y purinoceptor 1 (Homo sapiens, UniProt P47900); experiment: Displacement of [beta-33P]-2MeS-ADP from human P2Y1 receptor expressed in HEK293 cells after 1 hr by scintillation counting analysis; format: cell-based
[2] = Antiplatelet activity in human platelet rich plasma assessed as inhibition of ADP-induced platelet aggregation; format: functional
[3] = Protein binding in human serum; format: ADME, cell-free; conditions: read-out: PB
[4] = Clearance in rat at 5 mg/kg, iv; format: ADME, organism-based; set-up: dose 5 mg/kg, route intravenous; conditions: in vivo
[5] = Oral bioavailability in rat; format: ADME, organism-based; conditions: in vivo

Sequence of P2Y purinoceptor 1 (P47900 whole entry): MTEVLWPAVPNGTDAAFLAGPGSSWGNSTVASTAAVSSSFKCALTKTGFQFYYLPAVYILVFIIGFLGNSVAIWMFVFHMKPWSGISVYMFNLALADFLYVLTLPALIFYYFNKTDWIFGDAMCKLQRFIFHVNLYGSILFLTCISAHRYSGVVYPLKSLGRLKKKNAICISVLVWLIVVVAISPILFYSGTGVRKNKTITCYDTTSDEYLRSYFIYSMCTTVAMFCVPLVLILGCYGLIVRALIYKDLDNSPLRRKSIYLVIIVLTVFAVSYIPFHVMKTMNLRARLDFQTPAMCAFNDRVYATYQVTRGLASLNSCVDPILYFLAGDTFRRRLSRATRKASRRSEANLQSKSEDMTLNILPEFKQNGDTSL

Row | SMILES | inhibition at 10 µM [1] [%] | Ki (P2Y purinoceptor 1) [nM] | IC50 [2] [nM] | fraction unbound [3] | clearance [4] [mL/min/kg] | bioavailability [5] [%]
1 | CC(C)(C)c1ccccc1Oc1ncccc1Nc1nc(C(F)(F)F)c(-c2ccccc2F)s1 | 41 | 7 | – | – | – | –
2 | COc1cccc(-c2sc(Nc3cccnc3Oc3ccccc3C(C)(C)C)nc2C(F)(F)F)c1 | 41 | 8 | – | – | – | –
3 | Cc1ccccc1-c1sc(Nc2cccnc2Oc2ccccc2C(C)(C)C)nc1C(F)(F)F | 54 | 11 | – | – | – | –
4 | Cc1ccc(-c2sc(Nc3cccnc3Oc3ccccc3C(C)(C)C)nc2C(F)(F)F)cc1 | 32 | 8 | – | – | – | –
5 | CC(C)(C)c1ccccc1Oc1ncccc1Nc1nc(C(F)(F)F)c(C(N)=O)s1 | – | 4850 | – | – | – | –
6 | CC(C)(C)c1ccccc1Oc1ncccc1Nc1nc(C(C)(C)C)c(-c2ccccc2)s1 | 86 | 31 | – | – | – | –
7 | CC(C)(C)c1ccccc1Oc1ncccc1Nc1nc(C(F)(F)F)c(-c2cccc(O)c2)s1 | 98 | 195 | – | – | – | –
8 | COc1ccc(-c2sc(Nc3cccnc3Oc3ccccc3C(C)(C)C)nc2C(F)(F)F)cc1 | 30 | 8 | – | – | – | –
9 | CC(C)(C)c1ccccc1Oc1ncccc1Nc1nc(C(C)(C)CC(=O)O)c(-c2ccccc2)s1 | 89 | 207 | – | – | – | –
10 | CCc1nc(Nc2cccnc2Oc2ccccc2C(C)(C)C)sc1-c1ccccc1 | 78 | 12 | – | – | – | –
11 | CN(C)C(=O)c1nc(Nc2cccnc2Oc2ccccc2C(C)(C)C)sc1-c1ccccc1 | 100 | 186 | – | – | – | –
12 | CC(C)(C)c1ccccc1Oc1ncccc1Nc1nc(C(F)(F)F)c(-c2ccccc2)s1 | 61 | 7 | 12000 | – | – | –
13 | CC(C)(C)c1ccccc1Oc1ncccc1Nc1nc(C(F)(F)F)c(-c2ccc(OC(F)(F)F)cc2)s1 | 85 | 12 | – | – | – | –
14 | CCOC(=O)c1sc(Nc2cccnc2Oc2ccccc2C(C)(C)C)nc1C(F)(F)F | 50 | 5 | – | – | – | –
15 | CC(C)(C)c1ccccc1Oc1ncccc1Nc1nc(C(F)(F)F)c(-c2ccc(C#N)cc2)s1 | 79 | 13 | – | – | – | –
16 | Cc1sc(Nc2cccnc2Oc2ccccc2C(C)(C)C)nc1C(F)(F)F | 96 | 11 | – | – | – | –
17 | CC(C)(C)c1ccccc1Oc1ncccc1Nc1nc(C(F)(F)F)c(-c2ccccc2O)s1 | 99 | 435 | – | – | – | –
18 | CC(C)(C)c1ccccc1Oc1ncccc1Nc1nc(C(F)(F)F)c(C#N)s1 | 101 | 21 | – | – | – | –
19 | Cc1noc(-c2sc(Nc3cccnc3Oc3ccccc3C(C)(C)C)nc2C(F)(F)F)n1 | 56 | 6 | – | – | – | –
20 | CN(C)CC(C)(C)COc1cccc(-c2sc(Nc3cccnc3Oc3ccccc3C(C)(C)C)nc2C(F)(F)F)c1 | 17 | 12 | 5200 | 0.001 | 6.7 | 27
21 | CC(C)(C)c1ccccc1Oc1ncccc1Nc1ncc(-c2ccccc2)s1 | 87 | – | – | – | – | –

From ChEMBL document CHEMBL2401677, “2-Aminothiazole based P2Y(1) antagonists as novel antiplatelet agents” (Bioorg Med Chem Lett, 2013)
